Assays:
recombinant BRD4 BD1 = biological target: T1, recombinant BRD4 BD1 (Homo sapiens, UniProt O60885); experiment: Competitive fluorescence-polarization (FP) binding assay, BRD4 BD1; settings: competitive FP, Table 6; read-out: IC50 as determinined in FP assays BRD4 BD1
T1 construct: for recombinant BRD4 BD1 and BRD4 BD2 proteins
Description: Fluorescence Polarization (FP) competitive binding studies were carried out using a FAM labeled fluorescent probe, see, e.g., Cpd. No. 350 of US 2014/0256706, to determine binding affinities of representative Compounds of the Disclosure for recombinant BRD4 BD1 and BRD4 BD2 proteins. Equilibrium dissociation constants (Kd) values of the fluorescent probe to BRD4 BD1 and BD2 proteins were determined from protein saturation experiments by monitoring the total fluorescence polarization of mixtures composed with the fluorescent probe at a fixed concentration and proteins with increasing concentrations up to full saturation. Serial dilutions of testing proteins were mixed with the fluorescent probe to a final volume of 200 μl in the assay buffer (100 mM phosphate buffer, pH=6.5, 0.01% Triton X-100 (Sigma, 282103) being added right before assays). Final fluorescent probe concentration was 1.5 nM for both proteins. Plates were incubated at room temperature for 30 minutes with gentle shaking to assure equilibrium. FP values in millipolarization units (mP) were measured using the Infinite M-1000 plate reader (Tecan U.S., Research Triangle Park, N.C.) in Microfluor 1 96-well, black, round-bottom plates (Thermo Scientific, Waltham, Mass.) at an excitation wavelength of 485 nm and an emission wavelength of 530 nm. Kd values of the fluorescent probe, which were calculated by fitting the sigmoidal dose-dependent FP increases as a function of protein concentrations using Graphpad Prism 6.0 software (Graphpad Software, San Diego, Calif.), are 5.5 and 3.0 nM to BDR4 BD1 and 2, respectively.
The IC50 and Ki values of compounds were determined in a competitive binding experiment. See US 2014/0256706. Mixtures of 10 μl of the tested compounds in assay buffer with 40% Ethylene Glycol and 190 μl of preincubated protein/probe complex solution in the assay buffer (100 mM potassium phosphate, pH 6.5, 0.01% Triton X-100) were added into assay plates which were incubated at room temperature for 30 minutes with gentle shaking. Final concentrations of proteins were 10 and 6 nM in assays for BRD4 BD1 and BD2, respectively. Final probe concentration is 1.5 nM in both assays. Negative controls containing protein/probe complex only (equivalent to 0% inhibition), and positive controls containing only free probes (equivalent to 100% inhibition), were included in each assay plate. FP values were measured as described above. IC50 values were determined by nonlinear regression fitting of the competition curves. Instead of being calculated from IC50 values as described before. Ki values of competitive inhibitors were obtained directly by nonlinear regression fitting as well, based upon the Kd values of the probe to different proteins, and concentrations of the proteins and probes in the competitive assays (US 2014/0256706; Wang, FEBS Lett. 360:111 (1995); Zhang et al., Analytical Biochemistry, 331:138 (2004)).
Representative compounds in Table 5 were evaluated for their binding affinities to BRD4 BD1 and BD2 proteins using the Competitive Fluorescence-Polarization (FP) Assays described in Example 6, with the data included in Table 6.

recombinant BRD4 BD2 = biological target: T2, recombinant BRD4 BD2 (Homo sapiens, UniProt O60885); experiment: Competitive fluorescence-polarization (FP) binding assay, BRD4 BD2; settings: competitive FP, Table 6; read-out: IC50 as determinined in FP assays BRD4 BD2
T2 construct: for recombinant BRD4 BD1 and BRD4 BD2 proteins

MOLM-13 = experiment: Cell growth inhibition, 4-day proliferation assay, MOLM-13; type: cell-based; settings: Homo sapiens, MOLM-13, WST-8 assay, Table 7; read-out: Cell growth inhibition (IC50 (nM)) MOLM-13
MDA-MB-231 = experiment: Cell growth inhibition, 4-day proliferation assay, MDA-MB-231; type: cell-based; settings: Homo sapiens, MDA-MB-231; WST-8 assay, Table 7; read-out: Cell growth inhibition (IC50 (nM)) MDA-MB-231
Summary of the method: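 Cells seeded at 3,000-10,000/well, treated with serially diluted compounds 4 days at 37 °C, 5% CO2. Viability by WST-8 (10% v/v, 1-2 h, A450); readings normalized to DMSO-treated cells, IC50 by four-parameter nonlinear regression.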

[1] = Plasma exposure after oral gavage in mice, LC-MS/MS; type: in vivo; settings: mouse, plasma, mice, oral gavage 25 mg/kg; for concentration at 1 h: read-out: Plasma concentration (ng/mL) 1 h; for concentration at 3 h: read-out: Plasma concentration (ng/mL) 3 h; for concentration at 6 h: read-out: Plasma concentration (ng/mL) 6 h
Description: For a number of representative compounds in Table 5, their plasma exposures with oral administration in mice via oral gavage were determined by LC-MS/MS, with the data shown in Table 9.

## Cc1c(C#Cc2ccccn2)sc2c1C(c1ccc(Cl)cc1)=N[C@@H](CC(N)=O)c1nnc(C)n1-2 [Compound 109, (S)-2-(4-(4-chlorophenyl)-3,9-dimethyl-2-(pyridin-2-ylethynyl)-6H-thieno[3,2-f][1,2,4]triazolo[4,3-a][1,4]diazepin-6-yl)acetamide]
Recombinant BRD4 BD1
  IC50: 3.8 nM
Recombinant BRD4 BD2
  IC50: 282 nM
MOLM-13
  IC50: 7.2 nM
MDA-MB-231
  IC50: 2.57 nM
[1]
  concentration at 1 h: 2170 ng/mL
  concentration at 3 h: 609 ng/mL
  concentration at 6 h: 184 ng/mL

## CCNC(=O)C[C@@H]1N=C(c2ccc(Cl)cc2)c2c(sc(C#Cc3ccccn3)c2C)-n2c(C)nnc21 [Compound 110, (S)-2-(4-(4-chlorophenyl)-3,9-dimethyl-2-(pyridin-2-ylethynyl)-6H-thieno[3,2-f][1,2,4]triazolo[4,3-a][1,4]diazepin-6-yl)-N-ethylacetamide]
Recombinant BRD4 BD1
  IC50: 8.5 nM
Recombinant BRD4 BD2
  IC50: 27.5 nM
MOLM-13
  IC50: 47.7 nM
MDA-MB-231
  IC50: 310 ± 100 nM
[1]
  concentration at 1 h: 1540 ng/mL
  concentration at 3 h: 1160 ng/mL
  concentration at 6 h: 123 ng/mL

## Cc1c(C#Cc2ccccn2)sc2c1C(c1ccc(Cl)cc1)=N[C@@H](CC(=O)N1CCN(C)CC1)c1nnc(C)n1-2 [Compound 119, (S)-2-(4-(4-chlorophenyl)-3,9-dimethyl-2-(pyridin-2-ylethynyl)-6H-thieno[3,2-f][1,2,4]triazolo[4,3-a][1,4]diazepin-6-yl)-1-(4-methylpiperazin-1-yl)ethan-1-one]
Recombinant BRD4 BD1
  IC50: 6.9 nM
Recombinant BRD4 BD2
  IC50: 140 nM
MOLM-13
  IC50: 20.9 nM
MDA-MB-231
  IC50: 38.1 nM
[1]
  concentration at 1 h: 632 ng/mL
  concentration at 3 h: 370 ng/mL
  concentration at 6 h: 52 ng/mL

## Cc1c(C#Cc2ccccn2)sc2c1C(c1ccc(Cl)cc1)=N[C@@H](CC(=O)N1CCC(O)CC1)c1nnc(C)n1-2 [Compound 123, (S)-2-(4-(4-chlorophenyl)-3,9-dimethyl-2-(pyridin-2-ylethynyl)-6H-thieno[3,2-f][1,2,4]triazolo[4,3-a][1,4]diazepin-6-yl)-1-(4-hydroxypiperidin-1-yl)ethan-1-one]
Recombinant BRD4 BD1
  IC50: 20.4 nM
Recombinant BRD4 BD2
  IC50: 59.4 nM
MOLM-13
  IC50: 71.6 nM
MDA-MB-231
  IC50: 61.1 nM

## Cc1c(C#Cc2ccccn2)sc2c1C(c1ccc(Cl)cc1)=N[C@@H](CC(=O)N1CC3(COC3)C1)c1nnc(C)n1-2 [Compound 124, (S)-2-(4-(4-chlorophenyl)-3,9-dimethyl-2-(pyridin-2-ylethynyl)-6H-thieno[3,2-f][1,2,4]triazolo[4,3-a][1,4]diazepin-6-yl)-1-(2-oxa-6-azaspiro[3.3]heptan-6-yl)ethan-1-one]
Recombinant BRD4 BD1
  IC50: 10.9 nM
Recombinant BRD4 BD2
  IC50: 62 nM
MOLM-13
  IC50: 57.4 nM
MDA-MB-231
  IC50: 86.3 nM

## Cc1c(C#Cc2ccccn2)sc2c1C(c1ccc(Cl)cc1)=N[C@@H](CC(=O)Nc1ccc(O)cc1)c1nnc(C)n1-2 [Compound 125, (S)-2-(4-(4-chlorophenyl)-3,9-dimethyl-2-(pyridin-2-ylethynyl)-6H-thieno[3,2-f][1,2,4]triazolo[4,3-a][1,4]diazepin-6-yl)-N-(4-hydroxyphenyl)acetamide]
Recombinant BRD4 BD1
  IC50: 10.2 nM
Recombinant BRD4 BD2
  IC50: 13.9 nM
MOLM-13
  IC50: 31 nM
MDA-MB-231
  IC50: 132 nM
[1]
  concentration at 1 h: 2520 ng/mL
  concentration at 3 h: 407 ng/mL
  concentration at 6 h: 83 ng/mL

## Cc1c(C#Cc2ccccn2)sc2c1C(c1ccc(Cl)cc1)=N[C@@H](CC(=O)N1CC(F)(F)C1)c1nnc(C)n1-2 [Compound 127, (S)-2-(4-(4-chlorophenyl)-3,9-dimethyl-2-(pyridin-2-ylethynyl)-6H-thieno[3,2-f][1,2,4]triazolo[4,3-a][1,4]diazepin-6-yl)-1-(3,3-difluoroazetidin-1-yl)ethan-1-one]
Recombinant BRD4 BD1
  IC50: 25.9 nM
Recombinant BRD4 BD2
  IC50: 79 nM
MOLM-13
  IC50: 57 nM
MDA-MB-231
  IC50: 47 nM

## CC(=O)NNC(=O)C[C@@H]1N=C(c2ccc(Cl)cc2)c2c(sc(C#Cc3ccccn3)c2C)-n2c(C)nnc21 [Compound 128, (S)—N′-acetyl-2-(4-(4-chlorophenyl)-3,9-dimethyl-2-(pyridin-2-ylethynyl)-6H-thieno[3,2-f][1,2,4]triazolo[4,3-a][1,4]diazepin-6-yl)acetohydrazide]
Recombinant BRD4 BD1
  IC50: 21.7 nM
Recombinant BRD4 BD2
  IC50: 12.8 nM
MOLM-13
  IC50: 42.6 nM
MDA-MB-231
  IC50: 202 nM

## Cc1c(C#Cc2ccccn2)sc2c1C(c1ccc(Cl)cc1)=N[C@@H](CC(=O)NC1CCN(C)CC1)c1nnc(C)n1-2 [Compound 130, (S)-2-(4-(4-chlorophenyl)-3,9-dimethyl-2-(pyridin-2-ylethynyl)-6H-thieno[3,2-f][1,2,4]triazolo[4,3-a][1,4]diazepin-6-yl)-N-(1-methylpiperidin-4-yl)acetamide]
Recombinant BRD4 BD1
  IC50: 8.7 nM
Recombinant BRD4 BD2
  IC50: 19 nM
MOLM-13
  IC50: 3.84 nM
MDA-MB-231
  IC50: 13 nM

## Cc1c(C#Cc2ccccn2)sc2c1C(c1ccc(Cl)cc1)=N[C@@H](CC(=O)NC1CCNCC1)c1nnc(C)n1-2 [Compound 131, (S)-2-(4-(4-chlorophenyl)-3,9-dimethyl-2-(pyridin-2-ylethynyl)-6H-thieno[3,2-f][1,2,4]triazolo[4,3-a][1,4]diazepin-6-yl)-N-(piperidin-4-yl)acetamide]
Recombinant BRD4 BD1
  IC50: 12.6 nM
Recombinant BRD4 BD2
  IC50: 26.9 nM
MOLM-13
  IC50: 188 nM
MDA-MB-231
  IC50: 243 nM

## Cc1c(C#Cc2ccccn2)sc2c1C(c1ccc(Cl)cc1)=N[C@@H](CC(=O)N1CCC(F)(F)CC1)c1nnc(C)n1-2 [Compound 132, (S)-2-(4-(4-chlorophenyl)-3,9-dimethyl-2-(pyridin-2-ylethynyl)-6H-thieno[3,2-f][1,2,4]triazolo[4,3-a][1,4]diazepin-6-yl)-1-(4,4-difluoropiperidin-1-yl)ethan-1-one]
Recombinant BRD4 BD1
  IC50: 22.4 nM
Recombinant BRD4 BD2
  IC50: 33.5 nM
MOLM-13
  IC50: 80 to 160 nM
MDA-MB-231
  IC50: 91.9 nM

## Cc1nnc(C[C@@H]2N=C(c3ccc(Cl)cc3)c3c(sc(C#Cc4ccccn4)c3C)-n3c(C)nnc32)s1 [Compound 134, (S)-4-(4-chlorophenyl)-3,9-dimethyl-6-((5-methyl-1,3,4-thiadiazol-2-yl)methyl)-2-(pyridin-2-ylethynyl)-6H-thieno[3,2-f][1,2,4]triazolo[4,3-a][1,4]diazepine]
Recombinant BRD4 BD1
  IC50: 7.88 nM
Recombinant BRD4 BD2
  IC50: 59.2 nM
MOLM-13
  IC50: 11.9 nM
MDA-MB-231
  IC50: 85.2 nM

## Cc1c(C#Cc2ccccn2)sc2c1C(c1ccc(Cl)cc1)=N[C@@H](Cc1nnc(C(C)C)o1)c1nnc(C)n1-2 [Compound 135, (S)-2-((4-(4-chlorophenyl)-3,9-dimethyl-2-(pyridin-2-ylethynyl)-6H-thieno[3,2-f][1,2,4]triazolo[4,3-a][1,4]diazepin-6-yl)methyl)-5-isopropyl-1,3,4-oxadiazole]
Recombinant BRD4 BD1
  IC50: 10 nM
Recombinant BRD4 BD2
  IC50: 45 nM
MOLM-13
  IC50: 13.8 nM
MDA-MB-231
  IC50: 24.5 nM

## Cc1c(C#Cc2ccccn2)sc2c1C(c1ccc(Cl)cc1)=N[C@@H](Cc1nnc(C3CC3)o1)c1nnc(C)n1-2 [Compound 136, (S)-2-((4-(4-chlorophenyl)-3,9-dimethyl-2-(pyridin-2-ylethynyl)-6H-thieno[3,2-f][1,2,4]triazolo[4,3-a][1,4]diazepin-6-yl)methyl)-5-cyclopropyl-1,3,4-oxadiazole]
Recombinant BRD4 BD1
  IC50: 11.3 nM
Recombinant BRD4 BD2
  IC50: 60.1 nM
MOLM-13
  IC50: 28.1 nM
MDA-MB-231
  IC50: 52.1 nM

From patent US11046709B2, “Fused 1,4-diazepines as BET bromodomain inhibitors” (THE REGENTS OF THE UNIVERSITY OF MICHIGAN, priority 2017, dated 2021)
